Earlier results as cited in patent US20100003224A1, “Combination Therapy” (GENZYME CORPORATION, priority 2006, published 2010).

Legend:
white blood cell counts = settings: WO 00/45814
pre-B-ALL cells [1] = settings: in vitro
progenitor cells = settings: single agent
[2] = test system: collagen-induced arthritis; settings: mice
pre-B-ALL cells [3] = settings: in vitro; remark: listed apart in the source
multiple sclerosis = settings: in vivo

Row | Compound | white blood cell counts (white blood cell counts) | cytotoxic and antiproliferative effects of vincristine and dexamethasone (pre-B-ALL cells [1]) | mobilization of progenitor cells (progenitor cells) | effects in collagen-induced arthritis models [2] | SDF-1 induced chemotaxis of pre-B-ALL cells into bone marrow stroma layers (pre-B-ALL cells [3]) | efficacy in the treatment of multiple sclerosis (multiple sclerosis)
1 | c1cc(CN2CCCNCCNCCCNCC2)ccc1CN1CCCNCCNCCCNCC1 [AMD3100, 1,1′-[1,4-phenylene-bis(methylene)]-bis-1,4,8,11-tetraazacyclotetradecane] | elevate white blood cell counts | enhanced | mobilizes progenitor cells | protective effects | blocked | –
2 | natalizumab: humanized monoclonal antibody against α4 (anti-VLA-4 antibody) | – | – | – | – | – | demonstrated efficacy
